Laboratory results as given in patent publication US20240209325A1, “CANCER PROPHYLAXIS AND THERAPY USING TARGETED VIRAL NANOPARTICLES” (priority 2021, published 2024).
Entries after “also recorded” stand apart in the source; their conditions may differ.

How the values were obtained:
4T1-Luc cells [1] = assay: Treatment of 4T1-Luc lung metastasis (immunotherapy); type: in vivo, Balb/c mice; conditions: 200 μg i.v. 3 days post tumor inoculation
Experimental: 4T1-luc cells (100,000/mouse) were injected i.v. into female Balb/c mice (n=15). […] Tumor growth was monitored by total bioluminescence imaging based on the i.p. injection of 150 mg/kg of body weight D-luciferin. Total bioluminescence was determined using the Living Image 3.0 software, and ROI were quantified as average counts.
A representative IVIS image on day 9 is shown in FIG. 5E while further imaging can be found in FIG. 13. […] The unabated tumor growth led to the mice in the PBS and CPMV groups all dying within 15 days or reaching their clinical endpoints before being sacrificed (FIG. 13B).

4T1-Luc cells [2] = assay: 4T1-Luc i.v. challenge to CPMV pre-treated mice (prophylaxis); type: in vivo, Balb/c mice
Experimental: After 5 days, the mice were challenged by i.v. injection of 200,000 4T1-Luc cells. The mice were imaged with the IVIS using luminescent imaging every 3 days by injecting intraperitoneally (i.p.) 150 mg/kg of body weight D-luciferin. ROI measurements were taken through the Living Image 3.0 software. The weight of the mice was also tracked every 3 days. After 25 days (20 days after tumor inoculation), the lungs were collected and fixed in Bouin's solution for 3 days. Each tumor nodule on the lungs was counted manually and averaged between the mice in each group.
To determine whether the prophylactic effect of S100A9-targeted CPMV could be replicated in other tumor models, we first exposed Balb/C mice to CPMV and S100A9-targeted CPMV by i.v. injection, and then challenged mice with luciferase-labeled 4T1 (4T1-Luc) cells. This experimental lung metastatic model mimics metastatic triple negative breast cancer (TNBC). Tumor cell challenge was carried out 5 days post CPMV exposure (FIG. 4G). […] By day 21, all the mice in the PBS treatment group had to be sacrificed due to significant weight loss (FIG. 12B). […] The lungs were harvested after 25 days and fixed in Bouin's solution before manual counting of tumor nodules (FIG. 4H, FIG. 4I). […] There was no significant difference between the CPMV and the CPMV-G3.

[3] = tested on: innate immune cells in the lungs (DCs, neutrophils, macrophages); assay: Flow cytometry of innate immune cell profile in lungs; type: in vivo, C57BL/6 mice; conditions: 200 μg i.v., lungs after 24 h; FACS (FIG. 6C)
Experimental: Lungs were harvested after 24 hours. Harvested organs were each placed in separate gentle MACS C tubes (Miltenyi Biotec) and dissociated with enzymatic solutions (lung dissociation kits, Miltenyi Biotec). The C tube lid was tightly screwed, inverted, and inserted in a gentleMACS dissociator (Militenyi Biotec). Organs were minced and digested on appropriate gentleMACS programs. After digestion, cells were passed through 40 μm pore size strainers and centrifuged at 500 g for 5 min. The cell pellet was resuspended in 5 mL of 1× RBC lysis solution (eBioscience) and incubated at RT for 2 min, followed by the addition of RPMI-1640 medium to stop lysis. Cells were centrifuged again at 500 g for 5 min and resuspended in PBS with 1% BSA and 2 mM EDTA (FACS solution). Total cell count and viability were found using trypan blue solution (Sigma-Aldrich) and a Countess™ automated cell counter (Invitrogen). Cell concentrations were adjusted to 1.0×10^7 cells/mL.
To reduce background staining of antibodies, 0.25 μg of purified rat anti-mouse CD16/32 (Biolegend) was added to 100 μL cell suspensions before adding to the conjugated antibodies. Cells were incubated at RT for ten minutes prior to immunofluorescence staining. All antibodies for immunofluorescence staining were purchased from Biolegend and diluted in FACS solution according to the manufacturer's recommendation. […]

B16F10 melanoma cells = assay: B16F10 i.v. challenge to CPMV and CCMV pre-treated mice (prophylaxis); type: in vivo, C57BL/6J mice
Description: After 7 days, the mice were challenged by i.v. administration of 200,000 B16F10 melanoma cells per mouse. Lungs were harvested at day 21 (day 14 after tumor inoculation) and fixed in a 10% (v/v) neutral-buffered formalin solution overnight. Following fixation, the lungs were stored in 70% (v/v) ethanol (EtOH), and the number of tumor nodules per lung was manually counted.
After tumor nodule counting, the fixed lung samples were submitted to the La Jolla Institute for Immunology for hematoxylin and eosin (H&E) staining and imaging. Paraffin-embedded blocks were sectioned at 4 μm on a Leica RM2125 RTS microtome. The sections were then floated on a 42° C. tissue flotation bath and mounted onto Fisher Superfrost Plus microscope slides and subjected to H&E staining. Scanning was accomplished using a ZEISS AxioScan Z1 using a 20× objective. The ratio of tumor cells to total cells was measured from the histology slides using QuPath software^68.
To investigate the suitability of S100A9-targeted VNPs to serve as a prophylactic immunotherapy preventing manifestation of lung metastasis, we used a lung metastasis mouse model using C57BL/6J mice i.v. challenged with B16F10 melanoma cells. C57BL/6J mice were pre-exposed to the CPMV (therapeutic) and CCMV (control) nanoparticles with and without the H6/G3 targeting ligands, one week before being challenged i.v. with B16F10 melanoma cells (FIG. 4A). Lungs were harvested 2 weeks post tumor challenge, and tumor nodules were manually counted. […] This experiment was repeated one more time with only the CPMV particles as well as the H6 peptide only control (FIG. 4D).

[4] = Biodistribution of Cy5-labeled CPMV and CCMV particles after i.v. injection (ex vivo IVIS); conditions: for accumulation/clearance in liver (share of fluorescence signal): Cy5-labeled particles, 200 μg i.v., organs harvested after 24 h; for lung homing (in words): healthy and B16F10 tumor-bearing mice, i.v., 24 h
Experimental: Healthy and B16F10 metastatic tumor-bearing C57BL/6 female mice were used for biodistribution studies of the Cy5-labeled CPMV and CCMV from Section 2. B16F10 cells (200,000 cells/mouse) were administered i.v. and the tumors were matured for one week. […] After 24 hours, the lungs were harvested and then imaged and quantified for fluorescence using the IVIS (Xenogen).
Both healthy and B16F10 tumor-bearing mice were injected with native and H6/G3-conjugated CPMV and CCMV; to enable tracking the nanoparticles were labeled with Cy5. Lungs and other organs were harvested 24 h following intravenous (i.v.) nanoparticle injection and imaged ex vivo to observe localization of the nanoparticles in the lungs, spleen, kidney, and liver (FIG. 3A).

S100A9 [5] = target: T1, S100A9 (Mus musculus, UniProt P31725); assay: Confocal imaging of co-localization with S100A9 in tumor-bearing lung sections; type: in vivo, B16F10-inoculated mice
T1 construct: confocal imaging of tumor-bearing lungs sections was performed; from tissue; host or cells: lungs of B16F10-inoculated C57BL/6 mice
T1 sequence (P31725 1-113): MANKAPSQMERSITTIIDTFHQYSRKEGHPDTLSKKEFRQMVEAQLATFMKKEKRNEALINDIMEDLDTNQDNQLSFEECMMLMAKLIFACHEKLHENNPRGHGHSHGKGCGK

[6] = tested on: RAW-Blue cells: Toll-like receptor (TLR) and NOD stimulation; assay: RAW-Blue immunogenicity assay (SEAP, QUANTI-Blue); type: cell-based; conditions: for immunogenicity, activation of NF-κB and AP-1, CPMV compared to CCMV (in words): FIG. 6B, 0.5 μg, 18 hours per method
Experimental: The immunogenicity of CPMV and CCMV was compared through a RAW-Blue™ assay (Invivogen). Briefly, 100,000 RAW-Blue™ cells/well were incubated with 0.5 μg of CPMV and CCMV, 50 EU mL-1 E. coli endotoxin standard control (ThermoScientific), or culture media for 18 hours. Toll-like receptor (TLR) and nucleotide-binding oligomerization domain (NOD) stimulation was assessed by measuring the levels of secreted embryonic alkaline phosphatase (SEAP) using a QUANTI-Blue™ (Invivogen) assay. Absorbance was measured at 655 nm using a Tecan microplate reader.
The immunogenicity between CPMV and its peptide-conjugated counterparts was also assessed using a RAW-Blue™ assay. […] A QUANTI-Blue™ assay was run like before, and absorbance was measured at 655 nm.

S100A9 [7] = target: T2, S100A9 (Homo sapiens, UniProt P06702); conditions: peptides that target or recognize and bind S100A9; screening described in Park et al. 2021; cited from earlier work
T2 sequence (P06702 1-114): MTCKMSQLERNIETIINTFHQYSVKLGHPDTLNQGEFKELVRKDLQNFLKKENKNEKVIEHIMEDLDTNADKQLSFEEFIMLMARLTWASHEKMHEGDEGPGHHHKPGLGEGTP

[8] = target: T3, CPMV-Cy5-PEG (cowpea mosaic virus nanoparticle without targeting peptide) (Cowpea mosaic virus, UniProt P03599 460-833; P03599 834-1022); assay: confocal imaging of tumor-bearing mouse lung sections after i.v. injection of the particles, S100A9 stained with antibody
T3 sequence 1: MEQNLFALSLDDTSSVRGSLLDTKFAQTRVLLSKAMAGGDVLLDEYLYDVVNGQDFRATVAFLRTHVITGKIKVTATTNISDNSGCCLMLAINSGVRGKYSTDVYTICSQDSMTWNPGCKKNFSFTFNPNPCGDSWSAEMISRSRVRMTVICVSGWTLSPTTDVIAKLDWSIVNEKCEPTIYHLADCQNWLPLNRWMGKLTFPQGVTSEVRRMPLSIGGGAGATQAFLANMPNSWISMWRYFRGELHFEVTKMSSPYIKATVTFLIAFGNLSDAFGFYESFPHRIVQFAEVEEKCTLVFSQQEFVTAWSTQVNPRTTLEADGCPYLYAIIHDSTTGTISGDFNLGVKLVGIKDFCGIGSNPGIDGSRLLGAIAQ
T3 sequence 2: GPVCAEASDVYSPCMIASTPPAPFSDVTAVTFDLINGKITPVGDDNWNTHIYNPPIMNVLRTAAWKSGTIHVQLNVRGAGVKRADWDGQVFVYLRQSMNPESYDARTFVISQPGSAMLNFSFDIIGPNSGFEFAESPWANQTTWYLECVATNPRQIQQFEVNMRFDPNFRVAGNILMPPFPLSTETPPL

For Cowpea mosaic virus [CPMV], the “time by which all mice died or reached clinical endpoints” value (4T1-Luc cells [1]) was at most 15 days, the “tumor burden / tumor growth by bioluminescence (in words)” value (4T1-Luc cells [1]) was “significant tumor burden; also recorded: unable to slow 4T1-Luc tumor growth” and the “decrease in tumor nodules compared to PBS” value (4T1-Luc cells [2]; 225 μg i.v. 5 days before challenge, lungs harvested after 25 days) was 10.6 fold. For the same molecule, the “tumor growth by luminescent imaging (in words)” value (4T1-Luc cells [2]; IVIS every 3 days, up to day 21) was “no signs of tumor growth by day 21”, the “side effects (in words)” value (4T1-Luc cells [2]; throughout the experiment) was “no apparent side effects were observed” and the “weight of the mice (in words)” value (4T1-Luc cells [2]; tracked every 3 days throughout the experiment) was “stayed fairly consistent”. For the same molecule, the “immune cell recruitment and activation in the lungs (in words)” value [3] was “did not produce a significant impact”, the “reduction of the ratio of tumor:total cells” value (B16F10 melanoma cells; H&E lung histology, QuPath (FIG. 4F)) was 1.7 fold and the “decrease of tumor nodules (tumor burden) in the lungs compared to PBS” value (B16F10 melanoma cells; first study (FIG. 4C), 200 μg i.v. 7 days before challenge, lungs 2 weeks post challenge) was 2.1 fold. The “reduction of tumor nodules compared to PBS” value (B16F10 melanoma cells; repeated experiment (FIG. 4D)) was 1.7 fold, the “accumulation/clearance in liver (share of fluorescence signal)” value [4] was 75% and the “lung homing (in words)” value [4] was “do not home to the lungs; also recorded: did not accumulate in the lungs”. For the same molecule, the “association/co-localization with S100A9 (in words)” value (S100A9 [5]) was “no association with S100A9”, the “TLR and/or NOD agonism / immunostimulation (in words)” value ([6]; CPMV, peptide-conjugated CPMV and peptides only, 10 μg, 24 h (FIG. 6A)) was “strong TLR and/or NOD agonists” and the “immunogenicity, activation of NF-κB and AP-1, CPMV compared to CCMV (in words)” value [6] was “much more immunogenic compared to CCMV; also recorded: higher level of activation; also recorded: immunostimulated by CPMV”.

With cowpea chlorotic mottle virus [CCMV] the “effect on tumor burden in the lungs (in words)” value (B16F10 melanoma cells; first study (FIG. 4C), compared to PBS) was “This effect was not seen”, the “accumulation/clearance in liver (share of fluorescence signal)” value [4] was 75% and the “lung homing (in words)” value [4] was “does not home to the lungs”. The “immunogenicity, activation of NF-κB and AP-1, CPMV compared to CCMV (in words)” value [6] was “immunostimulated by CPMV and not CCMV”.

For “peptide that binds S100A9, ACNSHRHGACGGGS (SEQ ID NO: 12) [MTP5]”, the Kd (S100A9 [7]) is given as 67.6 µM.

In the case of “peptide that binds S100A9, ACNSVHQHHCGGGS (SEQ ID NO: 13) [MTP6]”, the Kd (S100A9 [7]) is listed as 39.6 µM.

For “peptide that binds S100A9, ASSHIHHGGGS (SEQ ID NO: 10) [MTP2]”, the Kd (S100A9 [7]) is listed as 77.6 µM.

For “peptide that binds S100A9, HNHMADPGGGS (SEQ ID NO: 11) [MTP3]”, the Kd (S100A9 [7]) is given as 117 µM.

In the case of “scrambled control peptide MDPHAHNGGGS (SEQ ID NO: 16) [reference compound]”, the KD (S100A9 [7]) is given as “no binding”.

B1: S100A9 (S100 calcium-binding protein A9), endogenous, in lung sections of B16F10 tumor-bearing C57BL/6 mice (other)
chain: ANKAPSQMERSITTIIDTFHQYSRKEGHPDTLSKKEFRQMVEAQLATFMKKEKRNEALINDIMEDLDTNQDNQLSFEECMMLMAKLIFACHEKLHENNPRGHGHSHGKGCGK
notes: also called MRP14; calgranulin B
B1: no binding [8].
